Data taken from US20170105997A1, “METHODS OF TREATING CANCER” (Northwestern University, priority 2014, published 2017).
pIC50: −log10 of the molar value.

Columns and labels:
Assay type in all cases: cell-based
LP1 = assay: gIC50 in multiple myeloma cell line LP1 treated with EZH2 inhibitors; conditions: Homo sapiens, LP-1, t(4;14)+, UTX Hom 1621C>T (Q541X)
Protocol: (§1) All cells were grown in RPMI 1640 (Invitrogen) supplemented with 10% heat-inactivated FBS and 1% penicillin/streptomycin.
(§2) Cells were treated with the EZH2 inhibitors below. GSK2816126A is also known as GSK126 and is a compound of Formula I, specifically Compound B as described herein. Data in Table I was used to generate the data in FIG. 14. EZH2 inhibitors of Formula II, III, and IV and Compound C are used to generate gIC50 values and similar results as with GSK126 are found. Additional cell lines are tested with EZH2 inhibitors of Formula I, II, III, IV, Compound B, and Compound C and an improved cell killing, e.g. as measured by gIC50, is seen in cell lines having an increased level of MMSET expression, or a decreased level of UTX enzyme, or both, as compared to a control, e.g. a tissue typed control sample not characterized as having cancerous attributes.

KMS-11 = assay: gIC50 in multiple myeloma cell line KMS-11 treated with EZH2 inhibitors; conditions: Homo sapiens, t(4;14)+
Protocol: as §1, §2

RPMI-8226 = assay: gIC50 in multiple myeloma cell line RPMI-8226 treated with EZH2 inhibitors; conditions: Homo sapiens, MMSET none, UTX wt
Protocol: as §1, §2

KMS-12-BM = assay: gIC50 in multiple myeloma cell line KMS-12-BM treated with EZH2 inhibitors; conditions: Homo sapiens, MMSET none, UTX Hom del exons 5-12
Protocol: as §1, §2

OpM2 = assay: gIC50 in multiple myeloma cell line OpM2 treated with EZH2 inhibitors; conditions: Homo sapiens, OPM-2, t(4;14)+, UTX Het c.197G>A p.G66D
Protocol: as §1, §2

pIC50 (LP1): 5.62
pIC50 (KMS-11): 5.52
pIC50 (RPMI-8226): 5.77
pIC50 (KMS-12-BM): 5.59
pIC50 (OpM2): 6.06
Structure (SMILES): CC[C@H](C)n1cc(C)c2c(C(=O)NCc3c(C)cc(C)[nH]c3=O)cc(-c3ccc(N4CCNCC4)nc3)cc21 [GSK2816126A]
